Among the data in paper PMC10910531 are ring closure, isolated yield values, retold here.

The structures appear in SMILES notation.

The nature of series [1]: CRE method C: cyclic carbamate/urea formation with triphosgene + Et3N. The following applies: the molecule shown is the open-chain precursor, CH2Cl2, 100.0 mM, 22.0 °C.
The nature of series [2]: CRE method A: lactone/lactam formation, T3P + DIPEA, internal nucleophile (pyridine/amine) cascade. The settings on record: the molecule shown is the open-chain precursor, CHCl3, 50.0 mM, 22.0 °C.
Series [3] is described as follows: CRE method B: lactone/thiolactone/lactam formation, EDC.HCl + HOBt + DIPEA. The settings on record: DMF, 100.0 mM, 22.0 °C.
Series [4] in a line: CRE method E: cyclic oxalate-type (1,2-dicarbonyl) formation with oxalyl chloride + Et3N. The following applies: the molecule shown is the open-chain precursor, CH2Cl2, 50.0 mM, 22.0 °C.
The nature of series [5]: CRE method F: cyclic sulfite/sulfamidite formation with SOCl2 + DMAP. The settings on record: the molecule shown is the open-chain precursor, CH2Cl2, 50.0 mM, 22.0 °C, 18.0 h.

Regarding `CN(C(=O)Cl)c1ccccc1-c1cccc(CCO)n1` [S124 -> 84], the ring closure, isolated yield in series [1] (10-membered ring, 18.0 h) worked out at 59%.

As for `CCNCCCN(CC)Cc1ccccc1C(=O)O` [S84-derived acid -> 68 (2 steps)], the ring closure, isolated yield in series [2] (9-membered ring) is 54%. As for `O=C(Cl)N(CCN(CCCO)c1ccccc1)c1ccccc1` [16 -> 17], in series [1] (9-membered ring, 0.5 h), the ring closure, isolated yield is 62%. Consider `CC(O)Cc1cncc(-c2ccccc2CC(=O)O)n1` (stereo not shown) [S52 -> 55], for which the ring closure, isolated yield in series [2] (10-membered ring, 0.5 h) worked out at 90%.

As to `CC1CCSCc2ccccc2C(=O)O1` (stereo not shown) [S43 -> 51], the ring closure, isolated yield in series [3] (from CC(O)CCSCc1ccccc1C(=O)O, 9-membered ring, 16.0 h) was 71%. For the compound `CC(O)Cc1cccc(-c2ccccc2CC(=O)O)n1` (stereo not shown) [8 -> 9], the ring closure, isolated yield in series [2] (10-membered ring, 0.5 h) came to 90%.

In the case of `O=C(Cl)N(CCCCCCO)c1ccccc1` [18 -> 19 (control)], the ring closure, isolated yield in series [1] (9-membered ring) is 0%. In the case of `CN(C(=O)C(=O)Cl)c1ccccc1CCCCO` [26 -> 27 (control)], the ring closure, isolated yield in series [4] (10-membered ring, 18.0 h) is 9%. As to `CN(C(=O)Cl)c1ccccc1-c1cccc(CC(O)c2ccccc2)n1` (stereo not shown) [S126 -> 85 (NMR yield)], the ring closure, isolated yield in series [1] (10-membered ring, 18.0 h) stood at 34%. As to `CC1CCN(C)c2ccccc2-c2ccccc2C(=O)O1` (stereo not shown) [S71 -> 63], the ring closure, isolated yield in series [3] (from CC(O)CCN(C)c1ccccc1-c1ccccc1C(=O)O, 10-membered ring, 24.0 h) came to 78%. With `C=CCNC(C)Cc1cccc(-c2ccccc2CC(=O)O)n1` (stereo not shown) [S74 -> 64 (2 steps)], in series [2] (10-membered ring, 0.5 h), the ring closure, isolated yield was found to be 75%. As to `O=C1c2ccccc2CN(Cc2ccccc2)CC2CCCCN12` (stereo not shown) [S108 -> 79], the ring closure, isolated yield in series [3] (from O=C(O)c1ccccc1CN(Cc1ccccc1)CC1CCCCN1, 8-membered ring, 18.0 h) is 82%. With `O=S(Cl)OCCCCCCCO` (stereo not shown) [30 -> 31 (control)], the ring closure, isolated yield in series [5] (10-membered ring) came out at 8%. With `CC(O)Cc1cccc(-c2ccccc2CC(=O)O)c1` (stereo not shown) [10 -> 11 (control)], the ring closure, isolated yield in series [2] (10-membered ring) was found to be 0%. Turning to `O=C1OCCCSCc2ccccc21` [12 -> 13], the ring closure, isolated yield in series [3] (from O=C(O)c1ccccc1CSCCCO, 9-membered ring, 18.0 h) was determined as 86%.

Consider `CN1CCCC(=O)Oc2ccccc21` [S114 -> 81 (2 steps)], for which the ring closure, isolated yield in series [3] (from CN(CCCC(=O)O)c1ccccc1O, 8-membered ring, 18.0 h) came to 78%. Regarding `CN(CCCO)c1ccccc1N(C)C(=O)C(=O)Cl` [24 -> 25], the ring closure, isolated yield in series [4] (10-membered ring, 18.0 h) is 73%.

In the case of `CC(Cc1cccc(-c2ccccc2CO)n1)N(C(=O)C(=O)Cl)c1ccccc1` (stereo not shown) [S127 -> 87], in series [4] (12-membered ring, 3.0 h), the ring closure, isolated yield was 71%. `O=S(Cl)OCCCN(CCCO)Cc1ccccc1` (stereo not shown) [28 -> 29]: in series [5] (10-membered ring), the ring closure, isolated yield is 86%. Consider `O=C1OCCSCc2ccccc21` [47], for which the ring closure, isolated yield in series [3] (from O=C(O)c1ccccc1CSCCO, 8-membered ring) was found to be 88%. In the case of `O=C1SCCCSCc2ccccc21` [S86 -> 69], the ring closure, isolated yield in series [3] (from O=C(O)c1ccccc1CSCCCS, 9-membered ring, 16.0 h) worked out at 65%.

`O=C(Cl)N(CCCN(CCCO)c1ccccc1)c1ccccc1` [S138 -> 94]: in series [1] (10-membered ring, 18.0 h), the ring closure, isolated yield was 78%.

As for `CN1CCCOC(=O)c2ccccc2-c2ccccc21` [S67 -> 61], in series [3] (from CN(CCCO)c1ccccc1-c1ccccc1C(=O)O, 10-membered ring, 24.0 h), the ring closure, isolated yield was found to be 72%. Regarding `O=S(Cl)OCCCN(CCCO)c1ccccc1` (stereo not shown) [S130 -> 89], the ring closure, isolated yield in series [5] (10-membered ring) was 40%. As to `O=C1OCCCSCc2ccc(F)cc21` [S30 -> 48], the ring closure, isolated yield in series [3] (from O=C(O)c1cc(F)ccc1CSCCCO, 9-membered ring, 18.0 h) was found to be 80%. As for `O=C1OCCCCCc2ccccc21` [14 -> 15 (control)], the ring closure, isolated yield in series [3] (from O=C(O)c1ccccc1CCCCCO, 9-membered ring, 18.0 h) was found to be 43%. For `O=C(Cl)N(CCc1cccc(CCNc2ccccc2)n1)c1ccccc1` [S140 -> 97], the ring closure, isolated yield in series [1] (10-membered ring, 18.0 h) stood at 49%. As for `CC(O)Cc1cccc(-c2ccccc2COS(=O)Cl)n1` (stereo not shown) [S129 -> 88], the ring closure, isolated yield in series [5] (11-membered ring) was 58%. With `CN(CCCN)CCCC(=O)O` [S104-derived amino acid -> 78 (2 steps)], the ring closure, isolated yield in series [2] (9-membered ring) was 65%.

Take `O=C(Cl)C(=O)N(CCc1cccc(CCNc2ccccc2)n1)c1ccccc1` [S140 -> 96]: the ring closure, isolated yield in series [4] (11-membered ring, 0.5 h) is 51%. Regarding `CNCCCN(C)CCCN(C)C(=O)C(=O)Cl` [34 -> 98], the ring closure, isolated yield in series [4] (11-membered ring, 18.0 h) worked out at 71%. For `CC1CN(C)c2ccccc2-c2ccccc2C(=O)O1` (stereo not shown) [S69 -> 62], in series [3] (from CC(O)CN(C)c1ccccc1-c1ccccc1C(=O)O, 9-membered ring, 24.0 h), the ring closure, isolated yield was 81%. In the case of `CN(c1ccccc1-c1cccc(CCO)n1)S(=O)Cl` (stereo not shown) [S124 -> 86], the ring closure, isolated yield in series [5] (10-membered ring) came out at 46%. `CC(Cc1cccc(-c2ccccc2CC(=O)O)n1)Nc1ccccc1` (stereo not shown) [S77 -> 65 (quantitative)]: the ring closure, isolated yield in series [2] (10-membered ring, 0.5 h) is 100%. In the case of `O=C1OCCCSCc2c(Br)cccc21` [49c], the ring closure, isolated yield in series [3] (from O=C(O)c1cccc(Br)c1CSCCCO, 9-membered ring) was 67%. Regarding `O=C1OCCCSCc2c1cccc2[N+](=O)[O-]` [50], the ring closure, isolated yield in series [3] (from O=C(O)c1cccc([N+](=O)[O-])c1CSCCCO, 9-membered ring, 24.0 h) turned out to be 47%. As for `CN1CCOC(=O)c2ccccc2-c2ccccc21` [S63 -> 60], the ring closure, isolated yield in series [3] (from CN(CCO)c1ccccc1-c1ccccc1C(=O)O, 9-membered ring, 24.0 h) was 72%.
